Laboratory results as given in ChEMBL document CHEMBL1130310, “C3-Thia and C3-carba isosteres of a carbocyclic influenza neuraminidase inhibitor, (3R,4R,5S)-4-acetamido-5-amino-3-propoxyl-1-cyclohexene-1-carboxylic acid” (Bioorg Med Chem Lett, 1997).

Key:
[1] = Concentration required for 50% inhibition of influenza neuraminidase incubated in rat plasma at 37 degrees Celsius prior to assay; type: cell-free; settings: unidentified influenza virus
[2] = Concentration required for 50% inhibition of influenza neuraminidase; set-up: species or system unidentified influenza virus

SMILES	IC50 [1] [nM]	IC50 [2] [nM]
CCCS[C@@H]1C=C(C(=O)O)C[C@H](N)[C@H]1NC(C)=O	212	
CCCO[C@@H]1C=C(C(=O)O)C[C@H](N)[C@H]1NC(C)=O		130
CCCC[C@@H]1C=C(C(=O)O)C[C@H](N)[C@H]1NC(C)=O		220
